Assay results from patent US20150374844A1, “NOVEL PH -SWITCHABLE PEPTIDES FOR MEMBRANE INSERTION AND PORE FORMATION” (UNIVERSITY OF PENNSYLVANIA, priority 2013, published 2015).
No end group written: not given here.

Tests used:
Red Blood Cells (RBCs) = assay: Human red blood cell hemolysis assay (hemoglobin release)
Procedure: Human Red Blood hemolysis assay was carried out as described below.
About 5 ml human blood from healthy individuals were transferred into a 50 ml centrifuge tube and either re-suspended in 35 ml buffer pH 5.4 (150 mM NaCl, 20 mM MES) or pH 7.5 (150 mM NaCl, 20 mM Hepes). Red Blood Cells (RBCs) were washed 3 times with the appropriate buffer and finally re-suspended in a total of 50 ml buffer (pH 5.4 or 7.5). For the assay 175 μl of buffer solution (pH 5.4 or 7.5) was added into each well of a clear-bottom 96-well plate followed by 50 μl of re-suspended RBCs (approx. 2.5×10^7 cells) in the appropriate buffer (for RBC transfer wide bore pipet tips were used to avoid cell damage). Test PSPF peptides (New England Peptide TM) at the appropriate concentration were diluted in 25 μl PBS and then added to the cells. All steps were done with chilled buffers and on ice. The suspension was then mixed 6-8 times by pipetting with wide bore tips, the plate was covered and incubated at 37° C. for indicated time.
After incubation the cells were centrifuged for 5 min at 500×g and 150 μl of the supernatant was transferred into a new 96-well clear-bottom plate. Absorbance at 541 nm was measured and hemolysis was normalized to RBCs which have been incubated in the presence of 1% Triton X-100 (100% hemolysis).
Red blood cell (RBC) lysis assays was used to screen the functional efficacy of the PSPF peptides upon delivery (Table 5). The release of ATP, miRNA and hemoglobin has been studied at both pH 7.5 and 5.4.
A desirable peptide should also negate membrane disruption, as assessed by leakage of proteins such as hemoglobin at both pH values. Therefore the peptides were first screened for hemolytic activity at both pH 7.5 and pH 5.4.

[1] = siRNA co-transfection assay, cell viability; type: cell-based; set-up: concentration or dose not given beside the values; conditions: co-transfection of peptide and siRNA
Description: The protocol and siRNA reagent (target SSB gene) described in the following publication was followed: Bartz R, Fan H, Zhang J, Innocent N, Cherrin C, Beck S C, Pei Y, Momose A, Jadhav V, Tellers D M, Meng F, Crocker L S, Sepp-Lorenzino L, Barnett S F. Effective siRNA delivery and target mRNA degradation using an amphipathic peptide to facilitate pH-dependent endosomal escape. Biochem J. 2011; 435:475-87.

[2] = biological target: the molecule itself; assay: CD thermal denaturation of the hexamer, Gibbs-Helmholtz fit, pH 5.5
Procedure: (§1) Furthermore, thermal denaturation by circular dichroism (CD) was used to study the thermal stability of the PSPF-EKG hexamer at multiple concentrations (2 μM, 4 μM and 20 μM), and at both pH 7.4 (FIG. 8A) and pH 5.5 (FIG. 8B). For each pH, to the curves were analyzed according to the Gibbs-Helmholtz Equation, using global least squares fitting of ΔHm, Tm and baselines. Tm was chosen as a global parameter defined with a reference concentration of 4 μM. ΔCp was also included, but over the range of experimental data examed, this parameter was not well defined.

[3] = biological target: the molecule itself; assay: CD thermal denaturation of the hexamer, Gibbs-Helmholtz fit, pH 7.4
Procedure: as §1

[4] = biological target: the molecule itself; assay: size exclusion chromatography, self-association, pH 7.4 (Table 7 prints 6.6)
Procedure: Size exclusion chromatography (SEC) of 100 μM PSPF-EKG and 100 μM PSPF-DKG were measured by AKTA FPLC machine (GE) using a Superdex 75 column (GE) eluted at pH 7.4 (50 mM Tris, 150 mM NaCl) and pH 5.5 (50 mM MES, 150 mM NaCl) respectively, at 25° C. Four standards were used: blue dextran (2,000,000 g/mol), carbonic anhydrase (29,000 g/mol), cytochrome C (12,400 g/mol) and aprotinin (6,500 g/mol). In order to test the effect of salt concentration upon peptide elution, the elutions of PSPF-EKG were also measured at pH 7.4 (50 mM Tris, 2M NaCl) and pH 5.5 (50 mM MES, […]), respectively.
Size exclusion chromatography—The association state of the PSPF peptide PSPF-EKG was initially investigated by size exclusion chromatography (SEC) using a Superdex 75 column (GE Healthcare) eluted at pH 7.4 (150 mM NaCl, 50 mM Tris) and pH 5.5 (150 mM NaCl, 50 mM MES) respectively. In addition, PSPF-DKG was also investigated to determine the effect of substituting Asp for Glu on the stability of the water-soluble bundle at each pH. To determine the approximate oligomerization states, four standards were used, shown by blue eluting peaks in FIG. 4: blue dextran (2,000,000 g/mol), carbonic anhydrase (29,000 g/mol), cytochrome C (12,400 g/mol) and aprotinin (6,500 g/mol).

[5] = pH 5.4, compared to triton-x-100
[6] = pH 7.5, compared to triton-x-100

For “WSDLAKALSDLAKALSDLAKALSDLAKA [PSPF-DKA, WSDLAKA LSDLAKA LSDLAKA LSDLAKA]”, the “Hemoglobin Release” value (Red Blood Cells (RBCs); [5]) was “none”, the “Hemoglobin Release” value (Red Blood Cells (RBCs); [6]) was “none” and the viability [1] was 101%.

For “WSDLAKGLSDLAKGLSDLAKGLSDLAKG [PSPF-DKG, WSDLAKG LSDLAKG LSDLAKG LSDLAKG]”, the “Hemoglobin Release” value (Red Blood Cells (RBCs); [5]) was “none”, the “Hemoglobin Release” value (Red Blood Cells (RBCs); [6]) was “none” and the viability [1] was 104%.

In the case of “WSDLAQALSDLAQALSDLAQALSDLAQA [PSPF-DQA, WSDLAQA LSDLAQA LSDLAQA LSDLAQA]”, the “Hemoglobin Release” value (Red Blood Cells (RBCs); [5]) is reported as “none”, the “Hemoglobin Release” value (Red Blood Cells (RBCs); [6]) is reported as “none” and the viability [1] is reported as 100%.

With “WSDLAQGLSDLAQGLSDLAQGLSDLAQG [PSPF-DQG, WSDLAQG LSDLAQG LSDLAQG LSDLAQG]” the “Hemoglobin Release” value (Red Blood Cells (RBCs); [5]) was “none”, the “Hemoglobin Release” value (Red Blood Cells (RBCs); [6]) was “none” and the viability [1] was 98%.

For “WSELAKALSELAKALSELAKALSELAKA [PSPF-EKA, WSELAKA LSELAKA LSELAKA LSELAKA]”, the “Hemoglobin Release” value (Red Blood Cells (RBCs); pH 5.4) was “none”, the “Hemoglobin Release” value (Red Blood Cells (RBCs); pH 7.5) was “none” and the viability [1] was 105%.

“WSELAKGLSELAKGLSELAKGLSELAKG [PSPF-EKG, WSELAKG LSELAKG LSELAKG LSELAKG]” showed a viability [1] of 102%.

In the case of “WSELAQALSELAQALSELAQALSELAQA [PSPF-EQA, WSELAQA LSELAQA LSELAQA LSELAQA]”, the “Hemoglobin Release” value (Red Blood Cells (RBCs); pH 5.4) is reported as “none”, the “Hemoglobin Release” value (Red Blood Cells (RBCs); pH 7.5) is reported as “none” and the viability [1] is reported as 103%.

With “WSELAQGLSELAQGLSELAQGLSELAQG [PSPF-EQG, WSELAQG LSELAQG LSELAQG LSELAQG]” the “Hemoglobin Release” value (Red Blood Cells (RBCs); pH 5.4) was “none”, the “Hemoglobin Release” value (Red Blood Cells (RBCs); pH 7.5) was “none” and the viability [1] was 105%.

In the case of “WSHLAKALSHLAKALSHLAKALSHLAKA [PSPF-HKA, WSHLAKA LSHLAKA LSHLAKA LSHLAKA]”, the “Hemoglobin Release” value (Red Blood Cells (RBCs); pH 5.4) is reported as “none”, the “Hemoglobin Release” value (Red Blood Cells (RBCs); pH 7.5) is reported as “none” and the viability [1] is reported as 97%.

For “WSHLAKGLSHLAKGLSHLAKGLSHLAKG [PSPF-HKG, WSHLAKG LSHLAKG LSHLAKG LSHLAKG]”, the “Hemoglobin Release” value (Red Blood Cells (RBCs); pH 5.4) was “none”, the “Hemoglobin Release” value (Red Blood Cells (RBCs); pH 7.5) was “none” and the viability [1] was 102%.

For “WSHLAQALSHLAQALSHLAQALSHLAQA [PSPF-HQA, WSHLAQA LSHLAQA LSHLAQA LSHLAQA]”, the “Hemoglobin Release” value (Red Blood Cells (RBCs); pH 5.4) was “none”, the “Hemoglobin Release” value (Red Blood Cells (RBCs); pH 7.5) was “none” and the viability [1] was 105%.

For “WSHLAQGLSHLAQGLSHLAQGLSHLAQG [PSPF-HQG, WSHLAQG LSHLAQG LSHLAQG LSHLAQG]”, the “Hemoglobin Release” value (Red Blood Cells (RBCs); pH 5.4) was “none”, the “Hemoglobin Release” value (Red Blood Cells (RBCs); pH 7.5) was “none” and the viability [1] was 104%.

B1: PSPF-EKG (peptide)
peptide: WSELAKGLSELAKGLSELAKGLSELAKG
In the case of B1, the “[PSPF-EKG] at 50% fold and 300 K” value [2] is reported as 0.31 µM, the “[PSPF-EKG] at 50% fold and 300 K” value [3] is reported as 0.14 µM and the “apparent molecular weight, fold of calculated molecular weight” value [4] is reported as 6.5 fold.
